Literature values as cited in patent publication US20170157095A1, “ALLISARTAN ISOPROXIL SOLID DISPERSION AND PHARMACEUTICAL COMPOSITION” (SHENZHEN SALUBRIS PHARMACEUTICALS CO., LTD, priority 2014, published 2017).

solubility in water: low
SMILES: CCCCc1nc(Cl)c(C(=O)OCOC(=O)OC(C)C)n1Cc1ccc(-c2ccccc2-c2nnn[nH]2)cc1 [Allisartan isoproxil, 2-butyl-4-chloro-1-[2′-(1H-tetrazol-5-yl)-1,1′-biphenyl-methyl]-imidazole-5-carboxylic acid, 1-[(isopropoxy)-carbonyloxy]-methyl ester]
